The text below walks through data of US7683061B2, “Triazine dimers for the treatment of autoimmune diseases” (ProMetic BioSciences Inc., priority 2003, dated 2010).

Test [1] concerns the target TNFα / p75 TNFα receptor (CD120b) (Homo sapiens, UniProt P01375). Nature of the test: Binding ELISA: sTNF-R2 binding to plastic coated TNF-α. The protocol: Compounds were tested for their ability to bind to TNFα or inhibit the interaction of TNFα with its respective receptors; p55 and p75 TNFα receptor. Three binding ELISA assays were undertaken as described by Mancini et al. Biochemical Pharmacology 58, 851-859 (1999). TNFα or receptor (1 μg/mL) was coated on a 96-well plate Maxisorp, overnight at 4° C. After incubation, unbound TNFα or p55 TNFα receptor or p75 TNFα receptor was removed and the plate washed three times with PBS. The plate was then incubated with 100 μL/well of a 2% BSA solution for 1 h at 37° C. to block non specific protein binding. After incubation, the plate was washed three times with PBS. Biotinylated recombinant human TNFα p55 or p75 receptor or biotinylated recombinant human TNFα was added to the wells in the presence or absence of compounds. The plate was incubated for 1 h at 37° C. After incubation, the plate was washed three times with PBS to remove unbound labeled p55 or p75 receptor or recombinant human TNFα. 100 μL of avidin-HRP (diluted 1/2000 in PBS-0.1% BSA) was added to each well and incubated 1 h at 37° C. Bound p55 or p75 receptor or recombinant human TNFα was detected by the addition of 200 μL of 3,3′,5,5′-tetramethylbenzidine (TMB) per well for 15 min. The plate was then read at 655 nm on a EL 800 universal Microplate reader (Bio-Tek, Mississauga, Canada). Data was analyzed in Microsoft Excel and recorded as the percentage of inhibition of p55 or p75 binding to TNFα or TNFα binding to RI (p55) or RII (p75).
(In an ELISA, binding on a coated surface is turned into a signal by an enzyme label.)

Test [2] concerns female Lewis rats, collagen-induced arthritis. Nature of the test: Collagen-induced arthritis (CIA). Conditions: intravenous; from day 16 to day 21. The test is classed as in vivo. The protocol: Collagen-induced arthritis (CIA) was induced in female Lewis rats by intradermal administration of heterologous (bovine) type II collagen (250 μg) solubilized in 0.1 M acetic acid and emulsified in Complete Freund's Adjuvant (CFA). Rats were treated with the vehicle or methotrexate or compound 1 by intravenous injections at day 8, 9, 12, 14 and 16. Synovitis typically develops 12-15 days postimmunization in 80-90% of the animals. Once arthritis appears, each paw was examined two to three times a week. Both the incidence and severity of the arthritis was evaluated. Incidence is defined as the number of rats with clinical evidence of joint inflammation during the study period while severity was quantified by scoring daily each paw integer on a scale of 0 to 4 (0=normal, 4=maximum; Table 7) based on increasing levels of swelling, periarticular erythema and stiffness. The sum of the scores for all four paws was calculated as the arthritic index with a maximum possible score of 16 per rat. Since CIA primarily affects hind limbs, scores of 6-8 represent severe arthritis.

Test [3] concerns TNFα-induced apoptosis, WEHI-13VAR cells. In words: TNFα induced apoptosis in WEHI-13VAR cells (MTT). In kind it is cell-based, murine. To be noted: Mus musculus. An outline of the steps: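 WEHI-13VAR cells (2×10^4) were adhered overnight, then exposed to 0.04 nM TNFα plus 1 μg/mL actinomycin D, with or without compound, for 16–24 h at 37 °C. Viability was read by MTT reduction (4 h) with formazan absorbance at 570 nm, where a lower OD indicates apoptosis.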

For a further test, the system named is NZBxNZW mice. Nature of the test: SLE-glomerulonephritis in NZBxNZW mice. In kind it is in vivo. An excerpt: New Zealand mice of the F1 hybrid cross NZBxNZW develop most of the autoimmune abnormalities seen in human SLE and die from SLE-like immune complex (IC)-mediated glomerulonephritis. The mice develop high titers of anti-DNA (double-strand and single-strand) and nuclear extract (NE) antibodies, as well as SLE-related clinical manifestations including leukopenia, thrombocytopenia, proteinuria and glomerulonephritis. These mice develop anti-DNA antibodies after the age of 3 months, with a peak of anti-DNA antibody response occurring at 7 months. Subsequently, the serum concentration of anti-DNA antibodies declines, presumably as a consequence of progressive uremia. The first serological manifestations of the disease occurs at about 150 days (5 months). Their survival is evaluated at approximately 250 days.
FIG. 2 illustrates the effect of compound 1 on the mortality of the NZBxNZW mice. Intravenous administration of compound or vehicle was undertaken once a week from week 18 to week 37. Treatment ceased for 11 weeks and was restarted at week 48 for the control and compound 1 groups. […] It also delays the appearance of symptoms and mortality up to week 45. FIG. 3 illustrates the proteinuria at week 48 to 51.

The subject of a further test is MRL/lpr mice. Nature of the test: SLE-like syndrome in MRL/lpr mice. The test is classed as in vivo. Conditions: control group 10%. An excerpt: FIG. 5 is an example of the effect of compounds on survival of MRL/lpr mice. These mice also spontaneously develop SLE-like syndrome. MRL/lpr have a homozygous fas mutation, which accelerates autoimmunity. […] Furthermore, compounds 1 and 20 increase the survival (40%) compared to the control group (10%).

Setting [4] is: weekly intravenous, week 48 to week 52.

TNFα / p75 TNFα receptor (CD120b), sequence (P01375 77-233 limits assumed): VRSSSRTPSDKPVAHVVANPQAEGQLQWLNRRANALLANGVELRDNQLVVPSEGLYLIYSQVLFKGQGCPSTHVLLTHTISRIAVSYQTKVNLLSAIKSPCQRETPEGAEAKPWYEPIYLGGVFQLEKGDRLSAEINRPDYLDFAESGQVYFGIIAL

For the molecule `Oc1ccc(CCNc2nc(NCCNc3nc(NCCc4ccc(O)cc4)nc(Nc4ccccc4)n3)nc(Nc3ccccc3)n2)cc1` [Compound 1], in test [1] (10^−4 M), the inhibition at 100 µM was 0%. Besides, the inhibition at 10 µM in test [1] (10^−5 M) was 0%. The “reduction of the arthritic index” value in test [2] was determined as 20%. Besides, the inhibition at 10 µM in test [3] (1 × 10^−5M) was 36.8%. For the same molecule, in test [3] (2 × 10^−5M), the inhibition at 20 µM amounted to 17.7%. Moreover, the inhibition at 40 µM in test [3] (4 × 10^−5M) was -3.8%. The inhibition at 5 µM in test [3] (5 × 10^−6M) was found to be 14.3%. Moreover, the “delay of appearance of symptoms and mortality” value in the test with NZBxNZW mice (intravenous once a week from week 18 to week 37) is listed as not above 45 week. In addition, in the test with NZBxNZW mice (intravenous once a week from week 18 to week 37, at week 37), the “mortality of NZBxNZW mice” value is recorded as “reduces the mortality”. In the test with NZBxNZW mice (second SLE study, 65 weeks for control), the extended survival result is “up to 89 weeks”. The “proteinuria: amount of protein greater than 5 g/liter” value with NZBxNZW mice (week 48 to 51, after 11 weeks without treatment) was “greater than the control”. In the test on NZBxNZW mice (setting [4]), the “protein concentration (5 g/liter) in urine compared to the vehicle” value is “decrease” and the “trace amount of protein in urine (improvement in kidney filtration)” value is reported as “increase”. The “survival of MRL/lpr mice” value with MRL/lpr mice is 40%.

By inhibition is commonly meant the drop in the measured response relative to a control, in per cent.
